The assay deals with left atrium of the pig. Put plainly: Refractory period in anaesthetized pigs (AERP, left atrium). The assay is classed as in vivo. The settings on record: for Increase after Example 1 in ms: infusion 3 mg/kg/h, vs. control; for Effect on the refractory period (in words): single substances, Example 1 or 5 after 1 h infusion of 3 mg/kg/h. Here is the method:
Investigation of the refractory period in anaesthetized pigs
The investigations were carried out in the anaesthetised pig as described by Knobloch et al. (Knobloch K., Brendel J., Peukert S., Rosenstein B., Busch A.-E., Wirth K.-J., “Electrophysiological and antiarrhythmic effects of the novel IKUR channel blockers, S9947 and S20951, on the left vs. right pig atrium in vivo in comparison with the IKr blockers dofetilide, azimilide, d, I-sotalol and ibutilide”, Naunyn-Schmiedeberg's Arch Pharmacol 2002, 366: 482-487). The action of beta-blockers and IKUR blockers on the refractory period of the left atrium was investigated. First, the action of the individual substances was tested, then the action of the combination of both individual substances.
Male pigs of native German breed of age 2-3 months and weight 23-30 kg were used.
The pigs were premedicated with 3 mL of Rompun® 2% ([…] 23.3 mg/mL=3 mg/kg; injected intramuscularly) and 6 mL of Hostaket® (ketamine 115 mg/mL=20 mg/kg; injected intramuscularly). Anesthesia was induced using an intravenous bolus injection of 5 mL of Narcoren® (pentobarbital 160 mg/mL=25-30 mg/kg; i.v.) and continuously supplied intravenously by means of a pentobarbital perfusor at 12-17 mg/kg/h. After tracheotomy and intubation, the animals were ventilated with oxygen by means of a respirator. A left-lateral thoracotomy was carried out in the fifth intercostal space. The lungs were retracted using sutures, the pericardium was opened and held using sutures so that the heart rocked in this. The tip of a MAP Pacing™ electrophysiology catheter (EP Technologies, Model 1675, Boston Scientific Corporation, 92257 La Garenne-Colombes Cedex, France) were then placed on the free wall of the left atrium in a right-angled position and fixed to the left atrium under constant pressure in a stand. The electrical stimulation was carried out using an external heart stimulator from Biotronik (UHS 20, Universal heart stimulator, Biotronik GmbH, 12359 Berlin, Germany).
Measurement of the atrial effective refractory period (AERP): The electrical atrial response to the external pacemaker stimulation was visualized by means of a mono phasic action potential (MAP), which was derived from the left atrium by means of the electrophysiology catheter. A conditioning stimulation cycle of 10 base intervals (S1) in a double stimulation amplitude followed a diastolic, prematurely coupled extrastimulus (S2, 1 ms pulse duration, 200 ms refractory period), which originated during a 5 ms decrement of a coupling interval, which was 30 ms above the expected effective refractory period (AERP). The 5 mS decrement in the coupling interval of the extrastimulus ran until the atrium no longer produced any response in the form of an action potential. The longest coupling interval which was no longer able to induce any atrial action potential was used as the effective refractory period. The refractory period was in each case investigated at three basal cycle length, 240, 300 and 400 ms).
Experimental groups: The sole action of atenolol (bolus administration of 1 mg/kg) on the refractory period was investigated in a separate group of pigs (n=5).

The mark [1] stands for this setting: basal cycle length 240 ms, atenolol 1 mg/kg bolus i.v., n = 5.
Where [2] appears, read: basal cycle length 300 ms, atenolol 1 mg/kg bolus i.v., n = 5.
Setting [3] is: basal cycle length 400 ms, atenolol 1 mg/kg bolus i.v., n = 5.

Results on three compounds are retold here after patent publication US20050054673A1, “Combination of phenylcarboxylic acid amides with beta-adrenoreceptor blockers and their use for the treatment of atrial arrhythmias” (Aventis Pharma Deutschland GmbH, priority 2003, published 2005).

Marks after values point to notes of the source that are not given here.

As for `CC(C)NCC(O)COc1ccc(CC(N)=O)cc1` (centres unmarked) [Atenolol, atenolol, reference compound], the “Increase in ms of refractory period vs. control” value is on record as 25* ms under setting [1], 21* ms under setting [2] and 11* ms under setting [3]. Further, the “Refractory period, mean value” under setting [1] was determined as 136 milliseconds; the “Refractory period, mean value” under setting [2] came out at 129 milliseconds; the “Refractory period, mean value” under setting [3] was 129 milliseconds.
Take `COc1ccc(CC(=O)NCc2ccccc2-c2ccccc2C(=O)NCCc2cccnc2)cc1` [Example 1, 2′-{[2-(4-Methoxyphenyl)acetylamino]methyl}biphenyl-2-carboxylic acid (2-pyridin-3-ylethyl)amide]: the “Effect on the refractory period (in words)” value is “increased to a stable level”. In addition, the “Refractory period, mean value” (basal cycle length 240 ms, Example 1 infused 3 mg/kg/h, after 1 h atenolol 1 mg/kg bolus, n = 6) is 136 milliseconds. In addition, where the note is “basal cycle length 240 ms, n = 6”, the “Increase after Example 1 in ms” value is on record as 35^# ms. For the same compound, under “basal cycle length 300 ms, Example 1 infused 3 mg/kg/h, after 1 h atenolol 1 mg/kg bolus, n = 6”, the “Refractory period, mean value” stood at 149.5 milliseconds. The “Increase after Example 1 in ms” value (basal cycle length 300 ms, n = 6) is reported as 40.7^# ms. Also, the “Refractory period, mean value” (basal cycle length 400 ms, Example 1 infused 3 mg/kg/h, after 1 h atenolol 1 mg/kg bolus, n = 6) turned out to be 166.2 milliseconds. Moreover, the “Increase after Example 1 in ms” value (basal cycle length 400 ms, n = 6) was 52.3^# ms.
As for `CCCCS(=O)(=O)Nc1ccccc1C(=O)N[C@H](CC)c1ccc(OC)nc1` [Example 5, 2-(Butyl-1-sulfonylamino)-N-[1(R)-(6-methoxypyridin-3-yl)-propyl]benzamide], the “Effect on the refractory period (in words)” value is on record as “increased to a stable level”.
